The values that follow come from US20180282323A1, “Mesoionic imidazole derivatives as insecticides” (BAYER CROPSCIENCE AKTIENGESELLSCHAFT, priority 2015, published 2018).

One data set deals with Tetranychus urticae. The experiment in a line: Tetranychus urticae spray test, OP-resistant. Type of data set: in vivo. The settings on record: application rate 500 g/ha, bean leaf discs, all stages, after 6 days. On the procedure: Tetranychus urticae—Spray Test, OP-Resistant Solvent: 78.0 parts by weight of acetone • • 1.5 parts by weight of dimethylformamide Emulsifier: alkylaryl polyglycol ether
To produce a suitable active ingredient formulation, 1 part by weight of active ingredient is dissolved with the stated parts by weight of solvent and made up with water containing an emulsifier concentration of 1000 ppm until the desired concentration is attained. To produce further test concentrations, the formulation is diluted with emulsifier-containing water.
Discs of bean leaves (Phaseolus vulgaris) infested with all stages of the greenhouse red spider mite (Tetranychus urticae) are sprayed with an active ingredient formulation of the desired concentration.
After 6 days, the efficacy in % is determined. 100% means that all the spider mites have been killed; 0% means that no spider mites have been killed.

Data set [1] deals with Myzus persicae. The experiment in a line: Myzus persicae oral test. Type of data set: in vivo. The settings on record: application rate 20 ppm, oral uptake through parafilm, after 5 days; for pest or weed control at 20 ppm: Myzus persicae, 120 h, read-out: efficacy. Summed up: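 Compound dissolved in acetone, diluted with water, then mixed into IPL41 insect medium with sugar in microtitre plates under parafilm. Mixed-population green peach aphids fed through the membrane; % mortality scored after 5 days (100% = all killed).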

For data set [2], the system named is Myzus persicae. The experiment in a line: Myzus persicae spray test (bell pepper plants). The settings on record: application rate 100 ppm, after 6 days. Type of data set: in vivo.
A short description of data set [3]: log P by HPLC on reversed-phase column (EEC directive 79/831 Annex V.A8). Type of data set: physicochemical. The gist of the method: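 Determined per EEC directive 79/831 Annex V.A8 by HPLC on a reversed-phase C18 column at 43° C.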
Data set [4] concerns Ctenocephalides felis. Briefly: Ctenocephalides felis in vitro contact test with adult cat fleas. Type of data set: in vivo. To be noted: application rate 5 μg/cm^2, after 48 h, adult cat fleas dead or moribund. The protocol: Ctenocephalides felis—In Vitro Contact Tests with Adult Cat Fleas
For the coating of the test tubes, 9 mg of active ingredient are first dissolved in 1 ml of acetone p.a. and then diluted to the desired concentration with acetone p.a. 250 μl of the solution are distributed homogeneously on the inner walls and the base of a 25 ml test tube by turning and rocking on an orbital shaker (rocking rotation at 30 rpm for 2 h). With 900 ppm of active ingredient solution and internal surface area 44.7 cm^2, given homogeneous distribution, an area-based dose of 5 μg/cm^2 is achieved.
After the solvent has evaporated off, the tubes are populated with 5-10 adult cat fleas (Ctenocephalides felis), sealed with a perforated plastic lid and incubated in a horizontal position at room temperature and ambient humidity. After 48 h, efficacy is determined. To this end, the test tubes are stood upright and the fleas are knocked to the base of the tube. Fleas which remain motionless at the base or move in an uncoordinated manner are considered to be dead or moribund.
100% efficacy means that all the fleas were dead or moribund. 0% efficacy means that no fleas were harmed.

The test system of another data set is Boophilus microplus. Briefly: Boophilus microplus injection test. The settings on record: application rate 20 μg/animal, assessed after 7 days by laying of fertile eggs. The data set is classed as in vivo. Summed up:
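Compound in DMSO, 1 μl injected into the abdomen of engorged adult female cattle ticks (5 per dose), then held in a climate-controlled room. Efficacy scored after 7 days as laying of fertile eggs, non-fertile-looking eggs kept ~42 days until larval hatch; 100% = no tick lays fertile eggs, 0% = all eggs fertile.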

Data set [5] deals with Ctenocephalides felis. The experiment in a line: Ctenocephalides felis oral test. The settings on record: application rate 100 ppm in citrated cattle blood, after 2 days. Type of data set: in vivo. On the procedure:
Ctenocephalides felis—Oral Test Solvent: dimethyl sulphoxide
For the purpose of production of a suitable active ingredient formulation, 10 mg of active ingredient are mixed with 0.5 ml of dimethyl sulphoxide. Dilution with citrated cattle blood gives the desired concentration.
About 20 unfed adult cat fleas (Ctenocephalides felis) are placed into a chamber which is closed at the top and bottom with gauze. A metal cylinder whose bottom end is closed with parafilm is placed onto the chamber. The cylinder contains the blood/active ingredient formulation, which can be imbibed by the fleas through the parafilm membrane.
After 2 days, the kill in % is determined. 100% means that all of the fleas have been killed; 0% means that none of the fleas have been killed.

In a further data set the test system is Lucilia cuprina. The experiment in a line: Lucilia cuprina test. Type of data set: in vivo. To be noted: application rate 100 ppm, L1 larvae, after 2 days. The gist of the method: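 About 20 L1 larvae placed in a vessel with minced horsemeat plus compound formulated in DMSO and diluted with water to the test concentration. Kill (%) scored after 2 days; 100% = all larvae dead, 0% = none dead.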

A further data set deals with Musca domestica. The experiment in a line: Musca domestica test. The data set is classed as in vivo. To be noted: application rate 100 ppm, adult houseflies, after 2 days. On the procedure:
Musca domestica Test Solvent: dimethyl sulphoxide
To produce a suitable active ingredient formulation, 10 mg of active ingredient are mixed with 0.5 ml of dimethyl sulphoxide, and the concentrate is diluted with water to the desired concentration.
Vessels containing a sponge treated with sugar solution and the active ingredient formulation of the desired concentration are populated with 10 adult houseflies (Musca domestica).
After 2 days, the kill in % is determined. 100% means that all of the flies have been killed; 0% means that none of the flies have been killed.

Data set [6] has as its system Myzus persicae. Briefly: Myzus persicae spray test (Chinese cabbage leaf discs). To be noted: application rate 500 g/ha, after 6 days. Type of data set: in vivo. The gist of the method:
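Active ingredient was formulated in acetone/DMF and diluted with water containing 1000 ppm emulsifier. Chinese cabbage leaf discs infested with all aphid stages were sprayed, and % kill was scored after 6 days (100% = all aphids dead).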

The test system of a further data set is Diabrotica balteata. Briefly: Diabrotica balteata spray test. Type of data set: in vivo. The settings on record: application rate 160 μg/well, wheat grains with beetle larvae, after 7 days. Summed up: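 Compound in acetone/DMF with emulsifier water sprayed onto wheat seedlings germinated one day on agar, 5 grains per well. Each well then infested with 10-20 Diabrotica balteata larvae. Efficacy scored after 7 days: 100% = plant growth as uninfected control, 0% = no plants grown.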

[7] abbreviates: HPLC on reversed-phase column (footnote a).

Read-outs that look alike come from different tables or passages of the source.

In the data set on Tetranychus urticae, `O=C(CCl)c1c([O-])n(Cc2cnc(Cl)s2)c2cccc[n+]12` [Example I-1-002, 3-(Chloroacetyl)-1-[(2-chloro-1,3-thiazol-5-yl)methyl]-1H-imidazo[1,2-a]pyridin-4-ium-2-olate] yielded an efficacy of 90%. In addition, in the data set on Myzus persicae [1], the pest or weed control at 20 ppm came out at 100%. Besides, the “efficacy (kill in %)” value in the data set with Myzus persicae [2] is listed as 90%. Further, the chromatographic logP in data set [3] and in data set [3] (pH 2.7) was 1.69 throughout.
Take `COCC(=O)c1c([O-])n(Cc2ccc(Cl)nc2)c2cccc[n+]12` [Example I-1-003]: the efficacy is reported as 100% in the data set with Ctenocephalides felis [4], 80% in the data set on Boophilus microplus, 100% in the data set with Myzus persicae [6] and 100% in the data set with Myzus persicae [1]. Also, the figures for the “efficacy (kill in %)” value with Ctenocephalides felis [5], in the data set on Lucilia cuprina and in the data set on Musca domestica were 95%, 100% and 80%, respectively. In addition, the log p in [3] (setting [7]) turned out to be 1.18.
Consider `O=C(Cn1cccn1)c1c([O-])n(Cc2cnc(Cl)s2)c2cccc[n+]12` [Example I-1-009, 1-[(2-Chloro-1,3-thiazol-5-yl)methyl]-3-(1H-pyrazol-1-ylacetyl)-1H-imidazo[1,2-a]pyridin-4-ium-2-olate], for which the efficacy is on record as 100% in the data set with Boophilus microplus, 90% in the data set on Tetranychus urticae and 90% in the data set with Myzus persicae [6]. Further, the “efficacy (kill in %)” value in the data set with Lucilia cuprina is given as 100%. Besides, the pest or weed control at 20 ppm in the data set on Myzus persicae [1] is 100%. The chromatographic logP in [3] (reversed-phase C18 HPLC column, pH 2.7, HPLC on reversed-phase column (footnote a), read-out: log p) turned out to be 1.47; in data set [3] (reversed-phase C18 HPLC column, HPLC-MS, reversed-phase C18, 43° C., calibration with alkan-2-ones, read-out: log P), 1.47.
As for `O=C(Cn1cncn1)c1c([O-])n(Cc2cnc(Cl)s2)c2cccc[n+]12` [Example I-1-014], the efficacy is recorded as 90% with Tetranychus urticae and 100% with Myzus persicae [1]. This compound also showed a log p in data set [3] (setting [7]) of 1.1.
Turning to `O=C(NCC(F)(F)F)c1c([O-])n(Cc2cnc(Cl)s2)c2cccc[n+]12` [Example I-1-137], the “efficacy (kill in %)” value in the data set with Lucilia cuprina and with Myzus persicae [2] was 95% each time. Moreover, the efficacy is reported as 100% with Diabrotica balteata, 90% in the data set on Tetranychus urticae and 100% in the data set with Myzus persicae [1]. The compound also returned a log p in data set [3] (setting [7]) of 2.08.
